Measurements taken from ChEMBL document CHEMBL4507288 (2021).

Key:
[1] = target: D(2) dopamine receptor (Homo sapiens, UniProt P14416); experiment: GPCRScan assay: inhibition of D2; parameters: radioligand conc. used [nm] 0.4 – 1.0, parental cells stable fibroblast
[2] = target: 5-hydroxytryptamine receptor 1B (Homo sapiens, UniProt P28222); experiment: GPCRScan assay: inhibition of 5-HT1B; parameters: radioligand conc. used [nm] 0.6 – 1.5, parental cells stable HEK
[3] = target: Histamine H2 receptor (Homo sapiens, UniProt P25021); experiment: GPCRScan assay: inhibition of H2; parameters: radioligand conc. used [nm] 0.02 – 0.05, parental cells Stable HEK
[4] = target: Tyrosine-protein kinase FRK (Homo sapiens) (UniProt P42685); details: Compound concentration 1000.0 nM
[5] = test system: Mast/stem cell growth factor receptor Kit (Homo sapiens), P10721 [D816V]; details: Compound concentration 1000.0 nM
Mast/stem cell growth factor receptor Kit (Homo sapiens), P10721 [D816V], sequence (P10721 whole entry D816V): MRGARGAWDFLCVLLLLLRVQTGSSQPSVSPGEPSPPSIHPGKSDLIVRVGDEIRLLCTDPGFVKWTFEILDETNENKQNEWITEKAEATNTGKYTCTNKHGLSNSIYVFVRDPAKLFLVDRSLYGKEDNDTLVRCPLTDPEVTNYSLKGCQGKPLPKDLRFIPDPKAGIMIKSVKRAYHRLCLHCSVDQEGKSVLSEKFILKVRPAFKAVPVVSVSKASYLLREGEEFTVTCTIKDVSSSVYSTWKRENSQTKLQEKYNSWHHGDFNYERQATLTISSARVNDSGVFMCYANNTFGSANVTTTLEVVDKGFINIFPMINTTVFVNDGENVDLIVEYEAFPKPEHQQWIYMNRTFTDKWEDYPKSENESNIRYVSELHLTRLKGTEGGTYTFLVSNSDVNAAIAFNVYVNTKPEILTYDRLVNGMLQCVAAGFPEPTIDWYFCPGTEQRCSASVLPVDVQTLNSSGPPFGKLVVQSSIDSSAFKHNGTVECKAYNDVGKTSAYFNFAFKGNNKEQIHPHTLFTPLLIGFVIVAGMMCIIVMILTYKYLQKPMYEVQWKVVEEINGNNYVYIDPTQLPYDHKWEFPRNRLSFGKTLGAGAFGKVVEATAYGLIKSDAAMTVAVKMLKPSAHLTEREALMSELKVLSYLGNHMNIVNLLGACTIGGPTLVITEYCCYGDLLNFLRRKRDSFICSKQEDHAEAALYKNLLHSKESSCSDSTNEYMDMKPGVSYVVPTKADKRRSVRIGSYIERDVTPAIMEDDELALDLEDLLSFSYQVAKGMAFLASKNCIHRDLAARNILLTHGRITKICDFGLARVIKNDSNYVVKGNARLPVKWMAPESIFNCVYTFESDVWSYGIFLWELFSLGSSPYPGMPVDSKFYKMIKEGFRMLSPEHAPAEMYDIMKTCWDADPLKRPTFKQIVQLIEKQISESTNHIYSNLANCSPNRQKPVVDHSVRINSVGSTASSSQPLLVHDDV

[6] = target: Serine/threonine-protein kinase mTOR (Homo sapiens) (UniProt P42345); details: Compound concentration 1000.0 nM
[7] = target: Protein-tyrosine kinase 2-beta (Homo sapiens) (UniProt Q14289); details: Compound concentration 1000.0 nM
[8] = target: Serine/threonine-protein kinase DCLK1 (Homo sapiens) (UniProt O15075); details: Compound concentration 1000.0 nM
[9] = target: Interleukin-1 receptor-associated kinase 4 (Homo sapiens) (UniProt Q9NWZ3); details: Compound concentration 1000.0 nM
Interleukin-1 receptor-associated kinase 4 (Homo sapiens), sequence (Q9NWZ3 whole entry): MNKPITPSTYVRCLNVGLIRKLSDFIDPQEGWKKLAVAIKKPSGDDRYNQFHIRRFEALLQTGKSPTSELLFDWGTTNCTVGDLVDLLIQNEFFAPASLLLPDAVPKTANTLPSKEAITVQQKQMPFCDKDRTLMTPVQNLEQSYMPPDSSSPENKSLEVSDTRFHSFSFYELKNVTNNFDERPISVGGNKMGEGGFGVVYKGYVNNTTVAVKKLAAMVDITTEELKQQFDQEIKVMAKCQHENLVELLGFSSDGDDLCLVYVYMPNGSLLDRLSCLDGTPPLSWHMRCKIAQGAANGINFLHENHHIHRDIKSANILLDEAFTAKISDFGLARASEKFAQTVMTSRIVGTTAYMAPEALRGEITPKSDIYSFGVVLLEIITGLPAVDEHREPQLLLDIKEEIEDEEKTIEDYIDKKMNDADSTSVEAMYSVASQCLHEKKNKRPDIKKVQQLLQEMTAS

[10] = target: Platelet-derived growth factor receptor alpha (Homo sapiens) (UniProt P16234); details: Compound concentration 1000.0 nM
Platelet-derived growth factor receptor alpha (Homo sapiens), sequence (P16234 whole entry): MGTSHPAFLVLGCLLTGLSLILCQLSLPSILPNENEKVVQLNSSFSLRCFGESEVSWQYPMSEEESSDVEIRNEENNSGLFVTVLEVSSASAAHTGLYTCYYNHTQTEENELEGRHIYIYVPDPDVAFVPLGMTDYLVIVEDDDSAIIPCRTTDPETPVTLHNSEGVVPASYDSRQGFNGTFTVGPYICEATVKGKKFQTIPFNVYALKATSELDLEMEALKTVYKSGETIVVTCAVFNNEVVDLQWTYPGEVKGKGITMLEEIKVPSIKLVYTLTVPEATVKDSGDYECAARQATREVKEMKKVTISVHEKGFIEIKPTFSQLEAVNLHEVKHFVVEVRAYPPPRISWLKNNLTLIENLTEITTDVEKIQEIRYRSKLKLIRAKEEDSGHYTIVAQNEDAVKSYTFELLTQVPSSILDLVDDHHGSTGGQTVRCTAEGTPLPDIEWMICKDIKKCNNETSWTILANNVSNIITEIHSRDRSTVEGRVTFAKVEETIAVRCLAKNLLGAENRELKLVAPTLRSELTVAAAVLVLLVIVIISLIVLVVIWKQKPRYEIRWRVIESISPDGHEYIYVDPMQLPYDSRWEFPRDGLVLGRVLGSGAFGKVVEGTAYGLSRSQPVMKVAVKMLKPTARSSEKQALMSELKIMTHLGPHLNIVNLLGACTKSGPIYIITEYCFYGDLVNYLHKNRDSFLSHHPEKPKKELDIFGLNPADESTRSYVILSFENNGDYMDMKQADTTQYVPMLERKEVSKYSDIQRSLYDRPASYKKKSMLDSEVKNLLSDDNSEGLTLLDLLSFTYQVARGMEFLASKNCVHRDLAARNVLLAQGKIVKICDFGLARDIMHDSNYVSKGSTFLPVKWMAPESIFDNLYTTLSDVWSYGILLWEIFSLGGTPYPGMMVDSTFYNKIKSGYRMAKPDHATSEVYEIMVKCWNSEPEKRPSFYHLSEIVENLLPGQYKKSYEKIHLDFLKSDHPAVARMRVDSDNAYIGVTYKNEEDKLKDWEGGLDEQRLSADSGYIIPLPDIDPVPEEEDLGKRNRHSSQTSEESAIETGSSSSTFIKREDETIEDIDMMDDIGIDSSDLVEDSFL

[11] = target: Cyclin-dependent kinase-like 5 (Homo sapiens) (UniProt O76039); details: Compound concentration 1000.0 nM
[12] = target: Casein kinase I isoform alpha-like (Homo sapiens) (UniProt Q8N752); details: Compound concentration 1000.0 nM
[13] = target: Tyrosine-protein kinase Tec (Homo sapiens) (UniProt P42680); details: Compound concentration 1000.0 nM
Tyrosine-protein kinase Tec (Homo sapiens), sequence (P42680 whole entry): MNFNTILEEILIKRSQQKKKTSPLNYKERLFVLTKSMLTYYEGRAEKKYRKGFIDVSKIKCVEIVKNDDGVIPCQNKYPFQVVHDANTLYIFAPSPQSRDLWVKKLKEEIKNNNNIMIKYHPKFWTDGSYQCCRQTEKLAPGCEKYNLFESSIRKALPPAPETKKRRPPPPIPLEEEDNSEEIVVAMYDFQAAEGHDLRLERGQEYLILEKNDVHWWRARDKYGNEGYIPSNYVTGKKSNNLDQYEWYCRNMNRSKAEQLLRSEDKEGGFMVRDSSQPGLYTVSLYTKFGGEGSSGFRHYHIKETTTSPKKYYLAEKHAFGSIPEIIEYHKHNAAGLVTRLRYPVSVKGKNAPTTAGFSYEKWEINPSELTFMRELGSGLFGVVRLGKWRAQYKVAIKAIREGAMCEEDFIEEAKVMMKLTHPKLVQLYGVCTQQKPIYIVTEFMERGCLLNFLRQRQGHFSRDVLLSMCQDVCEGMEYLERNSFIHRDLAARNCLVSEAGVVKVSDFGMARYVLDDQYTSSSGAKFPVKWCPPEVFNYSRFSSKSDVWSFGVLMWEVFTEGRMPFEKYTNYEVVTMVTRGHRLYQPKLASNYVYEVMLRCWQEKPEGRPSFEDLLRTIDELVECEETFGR

[14] = target: Ephrin type-A receptor 4 (Homo sapiens) (UniProt P54764); details: Compound concentration 1000.0 nM
[15] = target: Serine/threonine-protein kinase ULK2 (Homo sapiens) (UniProt Q8IYT8); details: Compound concentration 1000.0 nM
[16] = test system: Receptor-type tyrosine-protein kinase FLT3 (Homo sapiens), P36888 [D835V]; details: Compound concentration 1000.0 nM
[17] = test system: Mast/stem cell growth factor receptor Kit (Homo sapiens), P10721 [L576P]; details: Compound concentration 1000.0 nM
[18] = test system: Phosphatidylinositol 4,5-bisphosphate 3-kinase catalytic subunit alpha isoform (Homo sapiens), P42336 [M1043I]; details: Compound concentration 1000.0 nM
[19] = target: Serine/threonine-protein kinase DCLK2 (Homo sapiens) (UniProt Q8N568); details: Compound concentration 1000.0 nM
[20] = test system: Phosphatidylinositol 4,5-bisphosphate 3-kinase catalytic subunit alpha isoform (Homo sapiens), P42336 [Q546K]; details: Compound concentration 1000.0 nM
[21] = target: Macrophage-stimulating protein receptor (Homo sapiens) (UniProt Q04912); details: Compound concentration 1000.0 nM
[22] = target: Serine/threonine-protein kinase Nek6 (Homo sapiens) (UniProt Q9HC98); details: Compound concentration 1000.0 nM
[23] = test system: Proto-oncogene tyrosine-protein kinase receptor Ret (Homo sapiens), P07949 [V804M]; details: Compound concentration 1000.0 nM
[24] = test system: ALK tyrosine kinase receptor (Homo sapiens), Q9UM73 [C1156Y]; details: Compound concentration 1000.0 nM
[25] = target: Serine/threonine-protein kinase PRP4 homolog (Homo sapiens) (UniProt Q13523); details: Compound concentration 1000.0 nM
[26] = target: Ribosomal protein S6 kinase alpha-3 (Homo sapiens) (UniProt P51812); details: Compound concentration 1000.0 nM
[27] = target: AP2-associated protein kinase 1 (Homo sapiens) (UniProt Q2M2I8); details: Compound concentration 1000.0 nM
[28] = target: Angiopoietin-1 receptor (Homo sapiens) (UniProt Q02763); details: Compound concentration 1000.0 nM
[29] = target: Testis-specific serine/threonine-protein kinase 1 (Homo sapiens) (UniProt Q9BXA7); details: Compound concentration 1000.0 nM
[30] = test system: Mast/stem cell growth factor receptor Kit (Homo sapiens), P10721 [V559D]; details: Compound concentration 1000.0 nM
[31] = test system: Phosphatidylinositol 4,5-bisphosphate 3-kinase catalytic subunit alpha isoform (Homo sapiens), P42336 [H1047Y]; details: Compound concentration 1000.0 nM
Phosphatidylinositol 4,5-bisphosphate 3-kinase catalytic subunit alpha isoform (Homo sapiens), P42336 [H1047Y], sequence (P42336 whole entry H1047Y, canonical isoform): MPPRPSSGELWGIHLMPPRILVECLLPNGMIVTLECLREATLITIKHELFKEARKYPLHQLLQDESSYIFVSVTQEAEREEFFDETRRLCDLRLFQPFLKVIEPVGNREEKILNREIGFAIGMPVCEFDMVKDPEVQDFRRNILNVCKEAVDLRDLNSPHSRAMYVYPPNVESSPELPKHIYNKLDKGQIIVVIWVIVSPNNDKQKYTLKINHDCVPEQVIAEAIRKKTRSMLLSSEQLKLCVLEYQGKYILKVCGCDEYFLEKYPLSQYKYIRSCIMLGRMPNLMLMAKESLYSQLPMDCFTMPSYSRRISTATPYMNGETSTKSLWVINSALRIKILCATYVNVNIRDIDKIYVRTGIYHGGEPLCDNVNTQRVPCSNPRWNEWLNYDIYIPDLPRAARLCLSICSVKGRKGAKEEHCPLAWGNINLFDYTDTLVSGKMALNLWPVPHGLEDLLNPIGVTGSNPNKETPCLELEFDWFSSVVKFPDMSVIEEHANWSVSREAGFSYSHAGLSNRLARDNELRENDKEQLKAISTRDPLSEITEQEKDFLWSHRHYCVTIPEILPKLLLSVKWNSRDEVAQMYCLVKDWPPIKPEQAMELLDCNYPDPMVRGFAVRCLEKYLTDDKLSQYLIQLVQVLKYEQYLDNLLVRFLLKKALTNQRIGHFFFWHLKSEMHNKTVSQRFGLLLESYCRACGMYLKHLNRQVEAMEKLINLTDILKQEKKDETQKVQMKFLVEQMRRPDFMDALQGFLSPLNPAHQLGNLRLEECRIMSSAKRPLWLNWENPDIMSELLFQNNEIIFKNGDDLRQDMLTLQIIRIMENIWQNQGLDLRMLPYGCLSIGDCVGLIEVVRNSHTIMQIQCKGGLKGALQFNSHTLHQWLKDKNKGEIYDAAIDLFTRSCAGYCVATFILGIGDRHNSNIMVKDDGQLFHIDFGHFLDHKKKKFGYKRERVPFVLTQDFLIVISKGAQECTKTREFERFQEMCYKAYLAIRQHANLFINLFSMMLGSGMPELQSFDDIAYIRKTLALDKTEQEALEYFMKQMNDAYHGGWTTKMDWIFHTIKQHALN

[32] = target: Serine/threonine-protein kinase N2 (Homo sapiens) (UniProt Q16513); details: Compound concentration 1000.0 nM
[33] = target: Cyclin-dependent kinase-like 3 (Homo sapiens) (UniProt Q8IVW4); details: Compound concentration 1000.0 nM
[34] = target: Mast/stem cell growth factor receptor Kit (Homo sapiens) (UniProt P10721); details: Compound concentration 1000.0 nM
Mast/stem cell growth factor receptor Kit (Homo sapiens), sequence (P10721 whole entry): as the sequence (P10721 whole entry D816V) above, with V816D counted along it

[35] = target: 3-phosphoinositide-dependent protein kinase 1 (Homo sapiens) (UniProt O15530); details: Compound concentration 1000.0 nM
[36] = target: Aurora kinase B (Homo sapiens) (UniProt Q96GD4); details: Compound concentration 1000.0 nM
[37] = target: Serine/threonine-protein kinase TAO2 (Homo sapiens) (UniProt Q9UL54); details: Compound concentration 1000.0 nM
[38] = target: Aurora kinase C (Homo sapiens) (UniProt Q9UQB9); details: Compound concentration 1000.0 nM
Aurora kinase C (Homo sapiens), sequence (Q9UQB9 whole entry): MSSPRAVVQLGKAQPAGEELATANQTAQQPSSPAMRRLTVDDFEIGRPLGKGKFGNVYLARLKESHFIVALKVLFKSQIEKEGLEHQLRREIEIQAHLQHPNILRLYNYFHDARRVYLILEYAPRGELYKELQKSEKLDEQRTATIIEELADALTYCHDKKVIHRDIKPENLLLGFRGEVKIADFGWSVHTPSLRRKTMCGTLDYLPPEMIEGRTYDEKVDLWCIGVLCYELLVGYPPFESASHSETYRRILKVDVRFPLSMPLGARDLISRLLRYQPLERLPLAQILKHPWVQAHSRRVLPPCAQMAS

[39] = target: Serine/threonine-protein kinase MARK2 (Homo sapiens) (UniProt Q7KZI7); details: Compound concentration 1000.0 nM
[40] = target: Serine/threonine-protein kinase pim-1 (Homo sapiens) (UniProt P11309); details: Compound concentration 1000.0 nM
[41] = target: Serine/threonine-protein kinase D3 (Homo sapiens) (UniProt O94806); details: Compound concentration 1000.0 nM
[42] = target: Mitogen-activated protein kinase kinase kinase 10 (Homo sapiens) (UniProt Q02779); details: Compound concentration 1000.0 nM
[43] = target: Mitogen-activated protein kinase kinase kinase 12 (Homo sapiens) (UniProt Q12852); details: Compound concentration 1000.0 nM
[44] = target: Phosphatidylinositol 3-kinase C2 domain-containing subunit gamma (Homo sapiens) (UniProt O75747); details: Compound concentration 1000.0 nM
[45] = target: RAC-beta serine/threonine-protein kinase (Homo sapiens) (UniProt P31751); details: Compound concentration 1000.0 nM
RAC-beta serine/threonine-protein kinase (Homo sapiens), sequence (P31751 whole entry): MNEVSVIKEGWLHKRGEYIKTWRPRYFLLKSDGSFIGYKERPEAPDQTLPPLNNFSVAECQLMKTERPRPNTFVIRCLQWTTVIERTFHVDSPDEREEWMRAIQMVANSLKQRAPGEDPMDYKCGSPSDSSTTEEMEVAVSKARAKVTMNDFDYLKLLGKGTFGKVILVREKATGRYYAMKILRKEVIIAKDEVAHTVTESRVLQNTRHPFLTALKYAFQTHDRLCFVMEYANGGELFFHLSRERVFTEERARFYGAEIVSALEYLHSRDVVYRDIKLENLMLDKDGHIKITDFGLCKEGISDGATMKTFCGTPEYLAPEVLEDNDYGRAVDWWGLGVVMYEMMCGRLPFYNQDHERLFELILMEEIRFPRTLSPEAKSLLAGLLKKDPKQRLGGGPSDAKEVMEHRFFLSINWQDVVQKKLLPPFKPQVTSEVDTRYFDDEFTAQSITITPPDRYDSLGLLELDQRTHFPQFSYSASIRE

CC(C)(C)OC(=O)N1CCCC1CNC1CCC(c2cc(F)ccc2F)(S(=O)(=O)c2ccc(Cl)cc2)CC1 (stereo not given) [GSI-NC]
1220 nM: Ki [1]
3790 nM: Ki [3]
946 nM: Ki [2]

O=S(=O)(NC1CCC(c2cc(F)ccc2F)(S(=O)(=O)c2ccc(Cl)cc2)CC1)C(F)(F)F (stereo not given) [MRK-560]
inactive: residual activity [4] 100% | residual activity [5] 92% | residual activity [6] 94% | residual activity [7] 100% | residual activity [8] 100% | residual activity [9] 97% | residual activity [10] 100% | residual activity [11] 87% | residual activity [12] 100% | residual activity [13] 100% | residual activity [14] 95% | residual activity [15] 100% | residual activity [16] 82% | residual activity [17] 100% | residual activity [18] 100% | residual activity [19] 94% | residual activity [20] 91% | residual activity [21] 93% | residual activity [22] 100% | residual activity [23] 100% | residual activity [24] 100% | residual activity [25] 100% | residual activity [26] 83% | residual activity [27] 96% | residual activity [28] 85% | residual activity [29] 100% | residual activity [30] 95% | residual activity [31] 100% | residual activity [32] 100% | residual activity [33] 100% | residual activity [34] 100% | residual activity [35] 100% | residual activity [36] 100% | residual activity [37] 100% | residual activity [38] 94% | residual activity [39] 100% | residual activity [40] 100% | residual activity [41] 100% | residual activity [42] 100% | residual activity [43] 100% | residual activity [44] 100% | residual activity [45] 99%
